Measurements as given in patent publication US20070093469A1, “Substituted azetidine compounds as cyclooxygenase-1-cyclooxygenase-2 inhibitors, and their preparation and use as medicaments” (LABORATORIOS DEL DR. ESTEVE S.A, priority 2004, published 2007).

Test system: rats
Experiment: Test for activity against edema in rats (carrageenin paw)
Assay type: in vivo
Conditions: Rattus norvegicus, oral route
Experimental: IV. Test for Activity Against Edema in Rats
The test for activity against edema is carried out as described in the publication of Winter et al., Proc. Soc. Exp. Biol. Med. 111, 544-547, (1962). The respective part of the description is hereby incorporated by reference and forms part of the present disclosure.
At the beginning of each experimental session the rats are deprived of food, and kept in cages within groups of 5 animals, the cages being fitted with a grating on the floor to prevent coprophagy. After a period of 24 hours without food, the animals are marked in a suitable way, weighed and hydrated via oral administration of 30 ml/kg body weight of tap water. Half an hour after the hydratisation, the compounds to be tested are administered via oral route, in an amount of 10 ml/kg body weight as a suspension in gum arabic at 5% (weight/volume). One hour after administration of the compounds the animals receive 0.1 ml of the inflammation causing agent (carrageenin 1% weight/volume, in sterile solution), injected via subplantar route into the right hind paw of the rats. Immediately after the carrageenin injection the volume of the injected paw is determined using a plethysmometer. The readings are expressed in ml. Readings of the volume of the paw are taken every hour after administration of the carrageenin for 7 hours.

Row | Structure (SMILES) | ED50 [mg/kg]
1 | CC(C)(C)c1cc(C(=O)N2CC(O)C2)cc(C(C)(C)C)c1 [Example 2, (3,5-di-tert-butyl-phenyly)-(3-hydroxy-azetidin-1-yl)-methanone] | 28
2 | CC1C(O)CN1C(=O)c1cc(C(C)(C)C)c(O)c(C(C)(C)C)c1 (centres unmarked) [Example 4, (3,5-di-tert-butyl-4-hydroxy-phenyl)-(3-hydroxy-2-methyl-azetidin-1-yl)-methanone] | 31
